From ChEMBL document CHEMBL2169760 (J Med Chem, 2012)
pKi: −log10 of the molar value.

What follows are compounds tested against T1, Adenosine receptor A1 (Homo sapiens) (UniProt P30542) (assay: Activity at human A1 adenosine receptor expressed in CHO cells assessed as inhibition of forskolin-stimulated cAMP production at 10 uM after 30 min).
T1 sequence (whole entry): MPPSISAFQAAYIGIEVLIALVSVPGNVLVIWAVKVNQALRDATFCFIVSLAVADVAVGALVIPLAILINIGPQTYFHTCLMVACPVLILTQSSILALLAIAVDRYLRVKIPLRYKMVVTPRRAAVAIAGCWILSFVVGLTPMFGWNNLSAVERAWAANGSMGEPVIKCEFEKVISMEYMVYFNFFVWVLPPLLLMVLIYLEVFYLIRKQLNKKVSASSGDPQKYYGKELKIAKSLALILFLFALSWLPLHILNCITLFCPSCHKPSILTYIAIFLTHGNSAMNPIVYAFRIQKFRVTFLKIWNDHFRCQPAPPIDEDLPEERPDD
Format: functional, cell-based

Question: How did the inhibition turn out when `O[C@@H]1[C@H](O)[C@@H]2C[C@@H]2[C@H]1n1cnc2c(N[C@H](CC3CC3)C3CC3)nc(Cl)nc21` was run?
Answer: 18.4%

Question: For `O[C@@H]1[C@H](O)[C@@H]2C[C@@H]2[C@H]1n1cnc2c(N[C@@H](c3ccccc3)C3CC3)nc(Cl)nc21`, which inhibition is on record?
Answer: -7.4%

Question: For `CC[C@@H](Nc1nc(Cl)nc2c1ncn2[C@H]1[C@H](O)[C@H](O)[C@@H]2C[C@@H]21)C1CC1`, which inhibition is on record?
Answer: 37.3%

Question: For `O[C@@H]1[C@H](O)[C@@H]2C[C@@H]2[C@H]1n1cnc2c(N[C@@H](C3CCC3)C3CC3)nc(Cl)nc21`, which inhibition is on record?
Answer: 33.4%

Question: With `CC[C@H](Nc1nc(Cl)nc2c1ncn2[C@H]1[C@H](O)[C@H](O)[C@@H]2C[C@@H]21)C1CC1` as the compound, how does the inhibition read?
Answer: 57.9%

Each compound was assayed against T2, Adenosine receptor A3 (Homo sapiens, UniProt P0DMS8) (assay: Displacement of [125I]I-AB-MECA from human A3 adenosine receptor expressed in CHO cells after 60 min Packard Cobra 2 gamma-counter).
T2 sequence (P0DMS8 whole entry): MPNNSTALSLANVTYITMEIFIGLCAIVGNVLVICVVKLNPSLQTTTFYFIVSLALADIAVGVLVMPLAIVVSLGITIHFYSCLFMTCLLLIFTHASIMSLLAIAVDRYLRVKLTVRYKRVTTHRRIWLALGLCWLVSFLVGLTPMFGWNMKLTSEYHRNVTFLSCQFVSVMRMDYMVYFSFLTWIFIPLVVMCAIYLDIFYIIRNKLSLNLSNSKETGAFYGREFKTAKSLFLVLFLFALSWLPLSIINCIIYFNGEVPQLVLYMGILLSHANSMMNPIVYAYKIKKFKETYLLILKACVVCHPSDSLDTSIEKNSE
Format: cell-based

Question: How did the pKi turn out when `COC(=O)c1cnn(-c2nc(NC(C3CC3)C3CC3)c3ncn([C@H]4[C@H](O)[C@H](O)[C@@H]5C[C@@H]54)c3n2)c1` was run?
Answer: 6.31

Question: `O=C(O)c1cnn(-c2nc(NC(C3CC3)C3CC3)c3ncn([C@H]4[C@H](O)[C@H](O)[C@@H]5C[C@@H]54)c3n2)c1` was tested. Which pKi did it give?
Answer: 6.19

Question: `O[C@@H]1[C@H](O)[C@@H]2C[C@@H]2[C@H]1n1cnc2c(NC(C3CC3)C3CC3)nc(I)nc21` was tested. Which pKi did it give?
Answer: 6.74

Question: How did the pKi turn out when `O[C@@H]1[C@H](O)[C@@H]2C[C@@H]2[C@H]1n1cnc2c(N[C@@H](c3ccccc3)C3CC3)nc(Cl)nc21` was run?
Answer: 6.10

Question: How did the pKi turn out when `O[C@@H]1[C@H](O)[C@@H]2C[C@@H]2[C@H]1n1cnc2c(NC(C3CC3)C3CC3)ncnc21` was run?
Answer: 7.77

Question: How did the pKi turn out when `O[C@@H]1[C@H](O)[C@@H]2C[C@@H]2[C@H]1n1cnc2c(N[C@@H](C3CCC3)C3CC3)nc(Cl)nc21` was run?
Answer: 5.53

Question: How did the pKi turn out when `NNc1nc(NC(C2CC2)C2CC2)c2ncn([C@H]3[C@H](O)[C@H](O)[C@@H]4C[C@@H]43)c2n1` was run?
Answer: 7.15

These compounds were tested against T3, Adenosine receptor A2a (Homo sapiens, UniProt P29274) (assay: Displacement of [3H]CGS21680 from human A2a adenosine receptor expressed in HEK293 cells after 60 min by Perkin Elmer Liquid Scintillation Analyzer).
Format: cell-based

T3 sequence (P29274 whole entry): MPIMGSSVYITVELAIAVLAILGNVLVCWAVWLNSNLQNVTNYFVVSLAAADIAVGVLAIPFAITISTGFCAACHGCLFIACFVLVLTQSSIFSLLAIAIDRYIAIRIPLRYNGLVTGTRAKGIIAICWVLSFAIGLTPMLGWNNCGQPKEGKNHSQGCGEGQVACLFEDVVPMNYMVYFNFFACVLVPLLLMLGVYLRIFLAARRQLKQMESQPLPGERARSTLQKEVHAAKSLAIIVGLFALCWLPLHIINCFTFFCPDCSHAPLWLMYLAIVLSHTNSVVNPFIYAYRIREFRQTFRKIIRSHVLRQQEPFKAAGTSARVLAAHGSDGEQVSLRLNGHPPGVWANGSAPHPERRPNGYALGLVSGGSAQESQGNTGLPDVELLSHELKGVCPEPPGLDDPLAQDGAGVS

Question: How did the pKi turn out when `COC(=O)c1cnn(-c2nc(NC(C3CC3)C3CC3)c3ncn([C@H]4[C@H](O)[C@H](O)[C@@H]5C[C@@H]54)c3n2)c1` was run?
Answer: 5.39

Question: `O[C@@H]1[C@H](O)[C@@H]2C[C@@H]2[C@H]1n1cnc2c(NC(C3CC3)C3CC3)nc(I)nc21` was tested. Which pKi did it give?
Answer: 5.65

Question: `O[C@@H]1[C@H](O)[C@@H]2C[C@@H]2[C@H]1n1cnc2c(N[C@@H](C3CCC3)C3CC3)nc(Cl)nc21` was tested. Which pKi did it give?
Answer: 5.26

Each compound was assayed against T3, Adenosine receptor A2a (assay: Displacement of [3H]CGS21680 from human A2a adenosine receptor expressed in HEK293 cells at 10 uM after 60 min by Perkin Elmer Liquid Scintillation Analyzer).
Format: cell-based

Question: With `O=C(O)c1cnn(-c2nc(NC(C3CC3)C3CC3)c3ncn([C@H]4[C@H](O)[C@H](O)[C@@H]5C[C@@H]54)c3n2)c1` as the compound, how does the inhibition read?
Answer: 17%

Question: With `O[C@@H]1[C@H](O)[C@@H]2C[C@@H]2[C@H]1n1cnc2c(N[C@@H](c3ccccc3)C3CC3)nc(Cl)nc21` as the compound, how does the inhibition read?
Answer: 46%

Question: `O[C@@H]1[C@H](O)[C@@H]2C[C@@H]2[C@H]1n1cnc2c(NC(C3CC3)C3CC3)ncnc21` was tested. Which inhibition did it give?
Answer: 38%

Question: With `NNc1nc(NC(C2CC2)C2CC2)c2ncn([C@H]3[C@H](O)[C@H](O)[C@@H]4C[C@@H]43)c2n1` as the compound, how does the inhibition read?
Answer: 43%

These compounds were tested against T4, Adenosine receptor A1 (Homo sapiens, UniProt P30542) (assay: Displacement of [3H]R-PIA from human A1 adenosine receptor expressed in CHO cells after 60 min by Perkin Elmer Liquid Scintillation Analyzer).
T4 sequence (P30542 whole entry): T1 sequence (whole entry)
Format: cell-based

Question: With `COC(=O)c1cnn(-c2nc(NC(C3CC3)C3CC3)c3ncn([C@H]4[C@H](O)[C@H](O)[C@@H]5C[C@@H]54)c3n2)c1` as the compound, how does the pKi read?
Answer: 6.14

Question: `O=C(O)c1cnn(-c2nc(NC(C3CC3)C3CC3)c3ncn([C@H]4[C@H](O)[C@H](O)[C@@H]5C[C@@H]54)c3n2)c1` was tested. Which pKi did it give?
Answer: 5.97

Question: `O[C@@H]1[C@H](O)[C@@H]2C[C@@H]2[C@H]1n1cnc2c(NC(C3CC3)C3CC3)nc(I)nc21` was tested. Which pKi did it give?
Answer: 6.31

Question: How did the pKi turn out when `O[C@@H]1[C@H](O)[C@@H]2C[C@@H]2[C@H]1n1cnc2c(N[C@@H](c3ccccc3)C3CC3)nc(Cl)nc21` was run?
Answer: 5.52

Question: With `O[C@@H]1[C@H](O)[C@@H]2C[C@@H]2[C@H]1n1cnc2c(NC(C3CC3)C3CC3)ncnc21` as the compound, how does the pKi read?
Answer: 7.25

Question: `O[C@@H]1[C@H](O)[C@@H]2C[C@@H]2[C@H]1n1cnc2c(N[C@@H](C3CCC3)C3CC3)nc(Cl)nc21` was tested. Which pKi did it give?
Answer: 6.57

Question: With `NNc1nc(NC(C2CC2)C2CC2)c2ncn([C@H]3[C@H](O)[C@H](O)[C@@H]4C[C@@H]43)c2n1` as the compound, how does the pKi read?
Answer: 6.68

These compounds were tested against T1, Adenosine receptor A1 (Homo sapiens) (assay: Displacement of [3H]R-PIA from human A1 adenosine receptor expressed in CHO cells at 10 uM after 60 min by Perkin Elmer Liquid Scintillation Analyzer).
Format: cell-based

Question: How did the inhibition turn out when `O[C@@H]1[C@H](O)[C@@H]2C[C@@H]2[C@H]1n1cnc2c(NC(C3CCCC3)C3CCCC3)nc(Cl)nc21` was run?
Answer: 34%
